Measured values taken from patent US20220348590A1, “CYCLOOXYGENASE-2 INHIBITORS AND USES THEREOF” (The Board Institute, Inc., priority 2019, published 2022).
Where two headings read alike, the source gives them in different places.

Biological target: T1, human recombinant COX2 (hCOX2) (UniProt P35354)
T1 sequence (P35354 1-604): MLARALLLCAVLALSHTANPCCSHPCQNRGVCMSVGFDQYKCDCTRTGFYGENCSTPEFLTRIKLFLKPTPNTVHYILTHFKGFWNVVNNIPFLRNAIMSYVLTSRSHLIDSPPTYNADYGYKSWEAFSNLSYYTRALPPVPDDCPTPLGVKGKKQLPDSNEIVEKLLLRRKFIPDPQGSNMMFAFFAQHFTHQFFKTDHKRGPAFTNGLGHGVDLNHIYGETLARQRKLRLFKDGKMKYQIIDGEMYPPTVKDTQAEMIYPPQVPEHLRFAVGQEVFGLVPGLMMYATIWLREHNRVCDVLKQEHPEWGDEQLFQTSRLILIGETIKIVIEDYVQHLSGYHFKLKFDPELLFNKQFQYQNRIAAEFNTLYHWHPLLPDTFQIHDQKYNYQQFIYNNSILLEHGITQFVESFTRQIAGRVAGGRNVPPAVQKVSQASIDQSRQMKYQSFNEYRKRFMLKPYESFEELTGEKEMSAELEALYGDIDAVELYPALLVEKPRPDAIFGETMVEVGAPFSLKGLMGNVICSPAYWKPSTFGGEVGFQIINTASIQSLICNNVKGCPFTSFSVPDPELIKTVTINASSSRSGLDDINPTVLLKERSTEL
Experiment: LCMS-based COX2 enzymatic inhibition assay (PGE2 quantification)
Assay type: biochemical
Design: COX2 2 minutes pge2/pge2d4 area ratio Avg; other: 2 minutes; readout pge2/pge2d4 area ratio; average; COX2 2 minutes pge2/pge2d4 area ratio Avg; LLE; average LLE; COX2 2 minutes pge2 area (counts) Avg; readout pge2 area (counts); other: 2 min; "ovine COX2 (oCOX2), human recombinant COX2 (hCOX2)"
Details: for COX2 2 minutes pge2/pge2d4 area ratio Avg. LLE / COX2 2 minutes pge2 area (counts) Avg. LLE / COX2 10 minutes pge2 area (counts) Avg. LLE: average LLE; for IC50: average
Outline: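 PGE2 formed from arachidonic acid (final 5 μM, 2 min) was measured by LC-MS-MS against DMSO controls. Enzyme (oCOX-1 0.1 μg or hCOX2 0.2 μg) with hematin/epinephrine cofactors at pH 8.0 was given 10 min at 37 °C with compound first. Twelve-point curves run three times gave IC50.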

[1] = 2 minutes, readout pge2/pge2d4 area ratio
[2] = 2 minutes, readout pge2/pge2d4 area ratio, read-out: COX2 2 minutes pge2/pge2d4 area ratio Avg. IC50
[3] = 2 minutes, readout pge2 area (counts)
[4] = 2 minutes, readout pge2 area (counts), read-out: COX2 2 minutes pge2 area (counts) Avg. IC50
[5] = 10 minutes, readout pge2 area (counts)
[6] = 10 minutes, readout pge2 area (counts), read-out: COX2 10 minutes pge2 area (counts) Avg. IC50

Row | SMILES | COX2 2 minutes pge2/pge2d4 area ratio Avg. LLE [1] | IC50 [2] | COX2 2 minutes pge2 area (counts) Avg. LLE [3] | IC50 [4] | COX2 10 minutes pge2 area (counts) Avg. LLE [5] | IC50 [6]
1 | CS(=O)(=O)c1ccc(-n2nnc3ccc(NCc4cccs4)nc32)cc1 [Compound 139] |  | 207 nM |  | 219 nM |  | 
2 | CS(=O)(=O)c1ccc(-c2nc(OCc3cccs3)cc3ncccc23)cc1 [Compound 140] | 2.8258 | 212 nM | 2.75 | 311 nM |  | 
3 | CS(=O)(=O)c1ccc(-c2cncc(NCc3ccns3)n2)cc1 [Compound 142] | 5.555 | 221 nM | 5.576 | 211 nM |  | 
4 | CS(=O)(=O)c1ccc(-c2ccc3ccn(-c4ccccc4)c3n2)cc1 [Compound 146] | 2.102 | 248 nM | 2.132 | 201 nM |  | 
5 | CS(=O)(=O)c1ccc(-c2cccc(NCc3ccon3)n2)cc1 [Compound 150] | 5.05 | 276 nM | 5.0953 | 249 nM |  | 
6 | CS(=O)(=O)c1ccc(-n2ccc3ccc(C(=O)c4cccs4)nc32)cc1 [Compound 151, [1-(4-methylsulfonylphenyl)pyrrolo[2,3-b]pyridin-6-yl]-(2-thienyl)methanone] |  | 293 nM |  | 233 nM |  | 
7 | CS(=O)(=O)c1ccc(-c2ccc3ncn(Cc4cccs4)c3n2)cc1 [Compound 155] | 2.321 | 320 nM | 2.324 | 317 nM |  | 
8 | COc1nc(NCc2cccs2)cc(-c2ccc(S(C)(=O)=O)cc2)n1 [Compound 156] | 3.208 | 332 nM | 3.204 | 327 nM | 4.189 | 35.5 nM
9 | C[S+]([O-])c1ccc(-c2cccc(OCc3cccs3)n2)cc1 (stereo not shown) [Compound 157] | 3.382 | 350 nM | 3.281 | 428 nM |  | 
10 | COc1ccc(-c2ccc(S(C)(=O)=O)nc2)nc1NCc1cccs1 [Compound 158] | 3.956 | 359 nM | 3.972 | 349 nM |  | 
11 | COc1ccc(-c2ccc(S(C)(=O)=O)cc2)nc1NCc1cccs1 [Compound 160] | 3.162 | 385 nM | 3.174 | 361 nM |  | 
12 | CS(=O)(=O)c1ccc(-c2cncc(NCc3ccco3)c2)cc1 [Compound 161] |  | 388 nM |  | 337 nM |  | 
13 | COc1ncc(NCc2cncs2)nc1-c1ccc(S(C)(=O)=O)cc1 [Compound 163] | 4.491 | 409 nM | 4.597 | 319 nM |  | 
14 | CS(=O)(=O)c1ccc(-c2ncc3ncn(Cc4cccs4)c3n2)cc1 [Compound 164] | 2.595 | 411 nM | 2.638 | 368 nM | 3.534 | 50.3 nM
15 | COc1ncc(NCc2cccnc2)nc1-c1ccc(S(C)(=O)=O)cc1 [Compound 166] | 5.259 | 427 nM | 5.249 | 380 nM |  | 
16 | CS(=O)(=O)c1ccc(-c2cnc(C#N)c(NCc3cccs3)n2)cc1 [Compound 169] |  | 442 nM |  | 294 nM |  | 59.1 nM
17 | CS(=O)(=O)c1ccc(-c2cncc(OCc3ccccc3)n2)cc1 [Compound 172] | 4.174 | 447 nM | 4.01 | 520 nM |  | 
18 | CS(=O)(=O)c1ccc(-c2cncc(NCc3ccoc3)c2)cc1 [Compound 174] |  | 484 nM |  | 481 nM |  | 
19 | CS(=O)(=O)c1ccc(-c2cncc(NC3CCCCC3)n2)cc1 [Compound 180] | 3.95 | 555 nM | 3.961 | 514 nM |  | 

Continued by falling IC50 [2], values first:

Row | COX2 2 minutes pge2/pge2d4 area ratio Avg. LLE [1] | IC50 [2] | COX2 2 minutes pge2 area (counts) Avg. LLE [3] | IC50 [4] | COX2 10 minutes pge2 area (counts) Avg. LLE [5] | IC50 [6] | SMILES
20 | 4.286 | 546 nM | 4.322 | 387 nM |  |  | COc1cc(S(C)(=O)=O)ccc1-c1cncc(NCc2cccs2)n1 [Compound 179]
21 | 4.69 | 544 nM | 4.636 | 608 nM | 5.429 | 119 nM | CC(C)CNc1cncc(-c2ccc(S(C)(=O)=O)cc2)n1 [Compound 178]
22 | 3.19 | 532 nM | 3.2105 | 520 nM |  |  | CS(=O)(=O)c1ccc(-c2cnc3ccn(Cc4nccs4)c3n2)cc1 [Compound 176]
23 | 4.7843 | 508 nM | 4.685 | 638 nM |  |  | CS(=O)(=O)c1ccc(-c2cccc(NCc3ccno3)n2)cc1 [Compound 175]
24 | 3.7158 | 452 nM | 3.9817 | 326 nM | 4.808 | 38.4 nM | C[C@@H](Nc1cncc(-c2ccc(S(C)(=O)=O)cc2)n1)c1cccs1 [Compound 173]
25 | 4.364 | 447 nM | 4.345 | 452 nM |  |  | CS(=O)(=O)c1ccc(-c2nncc(NCc3cccs3)n2)cc1 [Compound 171]
26 | 4.592 | 425 nM | 4.629 | 391 nM |  |  | CS(=O)(=O)c1ccc(-c2cnc(N)c(NCc3cccs3)n2)cc1 [Compound 165]
27 | 4.781 | 361 nM | 4.751 | 381 nM |  |  | CS(=O)(=O)c1ccc(-c2nc(NCc3cccs3)cnc2C#N)cc1 [Compound 159]
28 | 5.153 | 304 nM | 5.323 | 195 nM |  |  | CS(=O)(=O)c1ccc(-c2cncc(OCc3ccns3)n2)cc1 [Compound 153]
29 | 6.031 | 297 nM | 6.197 | 174 nM |  |  | COc1ncc(NCc2ccon2)nc1-c1ccc(S(C)(=O)=O)cc1 [Compound 152]
30 | 4.057 | 272 nM | 4.033 | 285 nM |  |  | COc1ccc(NCc2ccco2)nc1-c1ccc(S(C)(=O)=O)cc1 [Compound 149]
31 | 5.484 | 268 nM | 5.518 | 255 nM |  |  | CS(=O)(=O)c1ccc(-c2cncc(SCc3ccon3)n2)cc1 [Compound 148]
32 | 4.543 | 250 nM | 4.9085 | 113 nM |  |  | CS(=O)(=O)c1ccc(-c2cncc(OCc3nccs3)n2)cc1 [Compound 147]
33 | 4.321 | 234 nM | 4.37 | 217 nM | 5.186 | 38.8 nM | Cc1ncc(-c2ccc(S(C)(=O)=O)cc2)nc1NCc1cccs1 [Compound 145]
34 | 3.605 | 234 nM | 3.637 | 229 nM |  |  | CS(=O)(=O)c1ccc(-c2cnc(C(F)(F)F)c(NCc3cccs3)n2)cc1 [Compound 144]
35 | 4.842 | 226 nM | 4.928 | 216 nM |  |  | CS(=O)(=O)c1ccc(-c2cncc(OCc3ccco3)n2)cc1 [Compound 143]
36 | 4.957 | 202 nM | 4.957 | 198 nM |  |  | CS(=O)(=O)c1ccc(-c2cncc(OCc3cncs3)n2)cc1 [Compound 138]
